Here are results for five compounds from patent US9199914B2, “Multiple substituted fluoromethanes as selective and bioactive isosteres” (MEH ASSOCIATES, INC., priority 2010, dated 2015).

Values after ≈ are worked out from the molar mass of the structure shown. Read-outs that look alike come from different tables or passages of the source.

Common to all, as to type: cell-based
The test system of test [1] is L. donovani MHOM-ET-67/L82, axenic amastigotes. The test can be described thus: In vitro sensitivity assay: axenic Leishmania donovani (Resazurin).
The test system of test [2] is Trypanosoma brucei rhodesiense; STIB 900. The test can be described thus: microbe, parasite or virus in culture.
Test [3] has as its system L-6 (rat skeletal myoblast cells). The test can be described thus: cells.
In another test the test system is Plasmodium falciparum K1. The test can be described thus: microbe, parasite or virus in culture.
For test [4], the system named is T. cruzi Tulahuen C2C4, containing the Lac Z gene. The test can be described thus: In vitro sensitivity assay: T. cruzi (Lac Z / CPRG, in L-6 cells). The conditions noted are these: Trypanosoma cruzi, L6; Tulahuen C4, amastigotes in L-6 cells.
[5] abbreviates: MHOM-ET-67/L82, amastigotes, 72 hours, read-out: IC50 Values L. donovani.

As usually defined, the IC50 is the concentration that inhibits the measured activity by half. Take `CCCCCCCCCCCCCCCCOP(=O)([O-])OCC[N+](C)(C)C` [miltefosine]: the IC50 came to 0.178 µg/mL (≈ 0.437 µM) in test [1] (setting [5]) and 0.131 µg/mL (≈ 0.321 µM) in test [1] (standard drug, protocol value, read-out: average IC50).
For `Nc1nc(N)nc(Nc2ccc([As]3SCC(CO)S3)cc2)n1` (stereo not shown) [melarsoprol], the IC50 came out at 0.003 µg/mL in test [2] (72 h, read-out: IC50 Values T.b. rhodensiense) and 0.004 µg/mL in test [2] (read-out: average IC50).
Regarding `COc1cc([C@@H]2c3cc4c(cc3[C@H](O)[C@H]3COC(=O)[C@H]23)OCO4)cc(OC)c1OC` [podophyllotoxin], the IC50 came out at 0.007 µg/mL (≈ 0.0169 µM) in test [3] (L6, read-out: IC50 Values Cytoxicity) and 0.006 µg/mL (≈ 0.0145 µM) in test [3] (Myoblast, read-out: average IC50).
Consider `CCN(CC)CCCC(C)Nc1ccnc2cc(Cl)ccc12` (stereo not shown) [chloroquinine, Chloroquine], for which the IC50 in the test on Plasmodium falciparum K1 (K1, read-out: IC50 Values P. falciparum) is 0.059 µg/mL (≈ 0.184 µM); in the test on Plasmodium falciparum K1 (K1, read-out: average IC50), 0.065 µg/mL (≈ 0.203 µM).
In the case of `O=C(O)CNCCC(F)(F)F` [MEH-002, (3,3,3-Trifluoro-propylamino)-acetic acid], the IC50 in test [1] (setting [5]) was more than 90 µg/mL; in test [4], more than 90 µg/mL; in the test on Plasmodium falciparum K1 (K1, IEF, read-out: IC50 Values P. falciparum) it was more than 5 µg/mL; in test [3] (L6 cells, read-out: IC50 Values Cytoxicity) it was more than 90 µg/mL; in test [2] (STIB 900, trypomastigotes, 72 h, read-out: IC50 Values T.b. rhodensiense), 10.3 µg/mL (≈ 60.2 µM).
